Measured values as given in PMC8080662 (Scientific Reports, 2021).

How the values were obtained:
PLK-1 = PLK-1 (Caenorhabditis elegans, UniProt P34331); test: in vitro radiometric kinase assay ([γ-32P]ATP, GST-LMN-1 head substrate); assay type: biochemical
LET-23 = LET-23 (Caenorhabditis elegans, UniProt P24348); test: continuous enzyme-coupled kinase assay on lipid vesicles, percent inhibition; assay type: biochemical
Chain of LET-23 (P24348 866-1191): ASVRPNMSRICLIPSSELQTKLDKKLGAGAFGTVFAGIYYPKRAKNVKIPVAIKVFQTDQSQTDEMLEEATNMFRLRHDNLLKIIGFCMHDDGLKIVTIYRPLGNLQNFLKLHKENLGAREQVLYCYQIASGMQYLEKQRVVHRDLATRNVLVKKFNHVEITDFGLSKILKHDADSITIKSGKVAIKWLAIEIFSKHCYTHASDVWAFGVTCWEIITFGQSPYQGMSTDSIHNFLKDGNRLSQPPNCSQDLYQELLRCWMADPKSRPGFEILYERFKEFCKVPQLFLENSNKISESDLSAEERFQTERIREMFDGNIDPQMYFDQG

Chain of PLK-1 (P34331 whole entry): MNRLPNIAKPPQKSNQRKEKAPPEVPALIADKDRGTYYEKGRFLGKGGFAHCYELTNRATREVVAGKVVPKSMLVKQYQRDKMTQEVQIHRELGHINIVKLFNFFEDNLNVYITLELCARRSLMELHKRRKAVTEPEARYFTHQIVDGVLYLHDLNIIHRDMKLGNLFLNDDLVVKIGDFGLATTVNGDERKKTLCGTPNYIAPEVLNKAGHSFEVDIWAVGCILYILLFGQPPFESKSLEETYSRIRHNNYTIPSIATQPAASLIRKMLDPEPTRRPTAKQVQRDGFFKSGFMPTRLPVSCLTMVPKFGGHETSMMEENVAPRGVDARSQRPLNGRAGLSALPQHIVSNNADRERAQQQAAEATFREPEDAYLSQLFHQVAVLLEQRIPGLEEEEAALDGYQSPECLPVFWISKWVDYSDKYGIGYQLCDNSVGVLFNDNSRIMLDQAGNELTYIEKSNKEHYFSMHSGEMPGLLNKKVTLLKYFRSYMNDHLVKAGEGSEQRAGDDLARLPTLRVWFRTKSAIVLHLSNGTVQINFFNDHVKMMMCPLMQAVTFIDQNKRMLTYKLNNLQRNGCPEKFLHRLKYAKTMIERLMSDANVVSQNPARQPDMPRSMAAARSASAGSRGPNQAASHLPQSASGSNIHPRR

| Compound | IC50 (PLK-1) [nM] | continuous enzyme-coupled kinase assay on lipid vesicles, percent inhibition (LET-23) |
| --- | --- | --- |
| C[C@@H](Oc1cc(-n2cnc3ccc(-c4ccncc4)cc32)sc1C(N)=O)c1ccccc1Cl [GSK483724A] | 91 |  |
| [O-][S+]1CCN(Cc2ccc(-c3ccc4ncnc(Nc5ccc(OCc6ccccc6)c(Cl)c5)c4c3)o2)CC1 [GW583373A] |  | The ATOP and 4AQ scaffold compounds tested were able to inhibit LET-23 kinase activity |
| CS(=O)(=O)CCNCc1ccc(-c2ccc3ncnc(Nc4ccc(OCc5cccc(F)c5)c(C(F)(F)F)c4)c3c2)o1 [GW576484X] |  | The ATOP and 4AQ scaffold compounds tested were able to inhibit LET-23 kinase activity |
| C[C@@H](Oc1cc(-n2cnc3cc(-c4ccncc4)ccc32)sc1C(N)=O)c1ccccc1Cl [GSK479719A] | 39 |  |
